# Legend:
# Format in all cases: in vivo, C57BL/6J male mice
# [1] = tested on: IL-1β; experiment: Inflammatory cytokine IL-1β in sciatic nerve (ELISA); settings: 10 mg/kg i.p. once a day, 4th week
# Method: (§1) 9-week-old C57BL/6J male mice were purchased and familiarized with an animal facility for 1 week. 200 mg/kg of streptozotocin (streptozotocin; STZ) was administered […] into the peritoneal cavity of 10-week-old mice to prepare streptozotocin-induced diabetic mice (hereinafter also referred to as “STZ administration week 0”). One week after the administration of streptozotocin, blood was collected from the tail vein of the mice, and the blood glucose level (BS) was measured using an automatic blood glucose measuring device (product name: Medisafe (trademark) Mini GR-102, made by Terumo (Co)). Mice having a blood glucose level of 400 mg/dL or more were determined to be diabetic mice.
# (§2) The SMTP-44D groups, the edaravone group, and the pregabalin group were administered SMTP-44D (0.3 mg/kg, 3 mg/kg, or 30 mg/kg doses, respectively), edaravone (10 mg/kg dose), or pregabalin (10 mg/kg dose) into the peritoneal cavity once a day for 3 consecutive weeks from the day following the first week to the fourth week after STZ administration.
# (§3) The sciatic nerves of the above-mentioned STZ group, SMTP-44D group (30 mg/kg), edaravone group, pregabalin group, and control group mice on the 4th week were homogenized using the RIPA buffer containing a protease inhibitor cocktail. Moreover, centrifugation was conducted at 4° C. for 15 minutes at 10,000 g, and the supernatant was collected and used for measuring TNF-α concentration (pg/mL), IL-1β concentration (pg/mL), IL-6 concentration (pg/mL), and total protein concentration (μg/mL), respectively. An ELISA assay kit was used for the TNF-α, IL-1β, and IL-6 concentrations. The total protein concentration was measured by using a Pierce (trademark) BCA Protein Assay Kit. The inflammatory cytokine level (pg/mg protein) in the total protein was calculated from the TNF-α concentration (pg/mL), IL-1β concentration (pg/mL), and IL-6 concentration (pg/mL), and total protein concentration (μg/mL).
# [2] = tested on: streptozotocin-induced diabetic mice; experiment: Von Frey test: evaluating mechanical stimulus; settings: 10 mg/kg i.p. once a day
# Method: as §1, §2
# The above-mentioned STZ group, SMTP-44D groups, edaravone group, pregabalin group, and control group mice were put in grid-like boxes, respectively, and were familiarized for one hour. After the familiarization, by using a Dynamic Plantar Aesthesiometer (tactometer) (manufactured by UGO BASILE Inc.), 1 g/s (that, pressurization increased by 1 g per second) of stimulation was imparted to the hind legs of these mice to measure mechanical thresholds (g) from the start of stimulation to the time when the mice withdrew their legs. The measurements were conducted for both hind legs three times at intervals of three minutes or longer, respectively. A mean value of three mechanical thresholds (g) was calculated for 1 mouse, and then a mean value of the 12 mice for the respective groups was found.
# [3] = tested on: streptozotocin-induced diabetic mice; experiment: Hot plate test: evaluating thermal stimulus; settings: 10 mg/kg i.p. once a day
# Method: as §1, §2
# The above-mentioned STZ group, SMTP-44D groups, edaravone group, pregabalin group, and control group mice were put in grid-like boxes, respectively, and were left for 30 minutes. After having been left, an acrylic disc (diameter: 20 cm; height (that is, thickness of the acrylic disc): […]) was placed on an EC hot plate (model number: EC1200) maintained at 49 to 50° C., and the mice were put on the acrylic disc. The measurements were started after the mice landed on the EC hot plate. The times from the mice landing to their action to jump or lick their hind legs were evaluated as thermal thresholds (seconds: s). Note, to avoid burns on their plantae, the measurements were ceased 30 seconds after beginning. The measurements were conducted three times at 30-minute intervals. A mean value of three thermal thresholds (seconds: s) was calculated for 1 mouse, and then a mean value of the 12 mice for the respective groups was found.
# [4] = tested on: streptozotocin-induced diabetic mice; experiment: Hind plantar blood flow (laser perfusion imager); settings: 10 mg/kg i.p. once a day
# Method: as §1, §2
# The hind plantar blood flows (perfusion unit: PU) of the above-mentioned STZ group, SMTP-44D groups, edaravone group, pregabalin group, and control group mice were measured under isoflurane anesthesia using a full-field laser perfusion imager.
# [5] = tested on: TNF-α; experiment: Inflammatory cytokine TNF-α in sciatic nerve (ELISA); settings: 10 mg/kg i.p. once a day, 4th week
# Method: as §1, §2, §3
# [6] = Body weight (BW) in streptozotocin-induced diabetic mice; settings: 10 mg/kg i.p. once a day
# Method: as §1, §2
# For the above-mentioned STZ group, SMTP-44D groups, edaravone group, pregabalin group, and control group mice, the following measurements were conducted every week from the 0th week, which began on the day when streptozotocin (STZ) was administered, to the 4th week (that is, a total of five times). As algesia tests, the following von Frey test and hot plate test were conducted, and hind plantar blood flow, body weight (BW), and blood glucose level (BS) were measured using the above-mentioned automatic blood glucose measure device. Note, for example, the 0th week represents the 0th day. That is, the measurements were conducted on the 0th, 7th, 14th, 21st, and 28th days.
# [7] = 0th week (before dosing), listed as pregabalin
# [8] = 1st week (before dosing), listed as pregabalin
# [9] = 0th week (before dosing), listed as edaravone
# [10] = 1st week (before dosing), listed as edaravone
smiles,measurement,setting,value
"CC(C)C[C@H](CN)CC(=O)O [Pregabalin, pregabalin]",IL-1β,[1],58.04 ± 4.47 pg/mg protein
same,IL-1β,[1]; listed as pregabalin,58.04±4.47 pg/mg protein
same,von Frey test mechanical threshold,[2]; 0th week (before dosing),5.0 ± 0.2 g
same,von Frey test mechanical threshold,[2]; [7],5.0 ± 0.2 g
same,von Frey test mechanical threshold,[2]; 1st week (before dosing),4.0 ± 0.1 g
same,von Frey test mechanical threshold,[2]; [8],4.0 ± 0.1 g
same,von Frey test mechanical threshold,[2]; 2nd week,4.6 ± 0.2 g
same,von Frey test mechanical threshold,"[2]; 2nd week, listed as pregabalin",4.6 ± 0.2 g
same,von Frey test mechanical threshold,[2]; 3rd week,4.6 ± 0.2 g
same,von Frey test mechanical threshold,"[2]; 3rd week, listed as pregabalin",4.6 ± 0.2 g
same,von Frey test mechanical threshold,[2]; 4th week,4.7 ± 0.2 g
same,von Frey test mechanical threshold,"[2]; 4th week, listed as pregabalin",4.7 ± 0.2 g
same,Hot plate test thermal threshold,[3]; 0th week (before dosing),22.2 ± 0.8 s
same,Hot plate test thermal threshold,[3]; [7],22.2 ± 0.8 s
same,Hot plate test thermal threshold,[3]; 1st week (before dosing),15.7 ± 0.7 s
same,Hot plate test thermal threshold,[3]; [8],15.7 ± 0.7 s
same,Hot plate test thermal threshold,[3]; 2nd week,17.3 ± 1.1 s
same,Hot plate test thermal threshold,"[3]; 2nd week, listed as pregabalin",17.3 ± 1.1 s
same,Hot plate test thermal threshold,[3]; 3rd week,17.7 ± 0.9 s
same,Hot plate test thermal threshold,"[3]; 3rd week, listed as pregabalin",17.7 ± 0.9 s
same,Hot plate test thermal threshold,[3]; 4th week,17.9 ± 1.1 s
same,Hot plate test thermal threshold,"[3]; 4th week, listed as pregabalin",17.9 ± 1.1 s
same,Hind plantar blood flow,[4]; 0th week (before dosing),214.2 ± 7.6 PU
same,Hind plantar blood flow,[4]; [7],214.2±7.6 PU
same,Hind plantar blood flow,[4]; 1st week (before dosing),159.8 ± 6.3 PU
same,Hind plantar blood flow,[4]; [8],159.8±6.3 PU
same,Hind plantar blood flow,[4]; 2nd week,144.7 ± 8.3 PU
same,Hind plantar blood flow,"[4]; 2nd week, listed as pregabalin",144.7±8.3 PU
same,Hind plantar blood flow,[4]; 3rd week,152.7 ± 9.5 PU
same,Hind plantar blood flow,"[4]; 3rd week, listed as pregabalin",152.7±9.5 PU
same,Hind plantar blood flow,[4]; 4th week,151.2 ± 8.0 PU
same,Hind plantar blood flow,"[4]; 4th week, listed as pregabalin",151.2±8.0 PU
same,TNF-α,[5],14.53 ± 1.41 pg/mg protein
same,TNF-α,[5]; listed as pregabalin,14.53±1.41 pg/mg protein
same,Body weight decrease between the 0th week and 4th week,[6],1.4 g
same,BW (body weight),[6]; 0th week (before dosing),21.8 ± 0.3 g
same,BW (body weight),[6]; [7],21.8 ± 0.3 g
same,BW (body weight),[6]; 1st week (before dosing),21.4 ± 0.3 g
same,BW (body weight),[6]; [8],21.4 ± 0.3 g
same,BW (body weight),[6]; 2nd week,21.3 ± 0.4 g
same,BW (body weight),"[6]; 2nd week, listed as pregabalin",21.3 ± 0.4 g
same,BW (body weight),[6]; 3rd week,21.0 ± 0.2 g
same,BW (body weight),"[6]; 3rd week, listed as pregabalin",21.0 ± 0.2 g
same,BW (body weight),[6]; 4th week,20.4 ± 0.2 g
same,BW (body weight),"[6]; 4th week, listed as pregabalin",20.4 ± 0.2 g
"CC1=NN(c2ccccc2)C(=O)C1 [Edaravone, edaravone]",IL-1β,[1],24.54 ± 4.52 pg/mg protein
same,IL-1β,[1]; listed as edaravone,24.54±4.52 pg/mg protein
same,von Frey test mechanical threshold,[2]; 0th week (before dosing),5.1 ± 0.1 g
same,von Frey test mechanical threshold,[2]; [9],5.1 ± 0.1 g
same,von Frey test mechanical threshold,[2]; 1st week (before dosing),4.1 ± 0.1 g
same,von Frey test mechanical threshold,[2]; [10],4.1 ± 0.1 g
same,von Frey test mechanical threshold,[2]; 2nd week,4.6 ± 0.2 g
same,von Frey test mechanical threshold,"[2]; 2nd week, listed as edaravone",4.6 ± 0.2 g
same,von Frey test mechanical threshold,[2]; 3rd week,4.8 ± 0.1 g
same,von Frey test mechanical threshold,"[2]; 3rd week, listed as edaravone",4.8 ± 0.1 g
same,von Frey test mechanical threshold,[2]; 4th week,5.1 ± 0.2 g
same,von Frey test mechanical threshold,"[2]; 4th week, listed as edaravone",5.1 ± 0.2 g
same,Hot plate test thermal threshold,[3]; 0th week (before dosing),20.8 ± 0.5 s
same,Hot plate test thermal threshold,[3]; [9],20.8 ± 0.5 s
same,Hot plate test thermal threshold,[3]; 1st week (before dosing),15.7 ± 0.8 s
same,Hot plate test thermal threshold,[3]; [10],15.7 ± 0.8 s
same,Hot plate test thermal threshold,[3]; 2nd week,15.5 ± 1.2 s
same,Hot plate test thermal threshold,"[3]; 2nd week, listed as edaravone",15.5 ± 1.2 s
same,Hot plate test thermal threshold,[3]; 3rd week,15.4 ± 0.9 s
same,Hot plate test thermal threshold,"[3]; 3rd week, listed as edaravone",15.4 ± 0.9 s
same,Hot plate test thermal threshold,[3]; 4th week,16.0 ± 0.8 s
same,Hot plate test thermal threshold,"[3]; 4th week, listed as edaravone",16.0 ± 0.8 s
same,Hind plantar blood flow,[4]; 0th week (before dosing),227.2 ± 12.5 PU
same,Hind plantar blood flow,[4]; [9],227.2±12.5 PU
same,Hind plantar blood flow,[4]; 1st week (before dosing),149.7 ± 11.5 PU
same,Hind plantar blood flow,[4]; [10],149.7±11.5 PU
same,Hind plantar blood flow,"[4]; 2nd week, listed as edaravone",161.4±9.1 PU
same,Hind plantar blood flow,[4]; 3rd week,166.6 ± 7.5 PU
same,Hind plantar blood flow,"[4]; 3rd week, listed as edaravone",166.6±7.5 PU
same,Hind plantar blood flow,[4]; 4th week,178.2 ± 9.9 PU
same,Hind plantar blood flow,"[4]; 4th week, listed as edaravone",178.2±9.9 PU
same,TNF-α,[5],12.45 ± 2.06 pg/mg protein
same,TNF-α,[5]; listed as edaravone,12.45±2.06 pg/mg protein
same,Body weight decrease between the 0th week and 4th week,[6],2.4 g
same,BW (body weight),[6]; 0th week (before dosing),23.4 ± 0.3 g
same,BW (body weight),[6]; [9],23.4 ± 0.3 g
same,BW (body weight),[6]; 1st week (before dosing),21.9 ± 0.4 g
same,BW (body weight),[6]; [10],21.9 ± 0.4 g
same,BW (body weight),[6]; 2nd week,21.6 ± 0.4 g
same,BW (body weight),"[6]; 2nd week, listed as edaravone",21.6 ± 0.4 g
same,BW (body weight),[6]; 3rd week,21.3 ± 0.5 g
same,BW (body weight),"[6]; 3rd week, listed as edaravone",21.3 ± 0.5 g
same,BW (body weight),[6]; 4th week,21.0 ± 0.5 g
same,BW (body weight),"[6]; 4th week, listed as edaravone",21.0 ± 0.5 g

# — patent US20220218664A1, “DRUG AND METHOD FOR TREATING OR PREVENTING COMPLICATIONS FROM DIABETES, USING SAID DRUG” (TMS Co., Ltd., priority 2019, published 2022)
